Data as given in patent publication EP1285918A1, “C7 Ester substituted taxanes as antitumor agents” (Florida State University Research Foundation, Inc., priority 2001, dated 2003).

Key:
[1] = system: VM46 Human Colon Carcinoma Xenografts; conditions: 72.6 mg/kg i.v. qd x 1, 6 mice/group, study end Day 64
Method: (§1) Other antitumor compounds were similarly formulated. […] The dosing volume was 0.3 mL per 20 g mouse.
(§2) Female NCr-nude mice (6-8 weeks of age, implanted subcutaneously with 1 mm^3 VM46 colon carcinoma fragments in the flank) were sorted into treatment groups of six mice each. […] Dosing was initiated on Day 1. The antitumor compounds were given i.v. at an estimated maximum tolerated dose (MTD) appropriate for each agent on a qd x 1 schedule (single administration of compound). […] Taxotere was given i.v. at a dose of 70 mg/kg on a qd x 1 schedule. The vehicle was given i.v. to control mice in Group 1 in each test on Day 1 (qd x 1) schedule. Treatment groups are detailed in Table 13. The VM46 study ended on Day 64.
(§3) The results are summarized in table 14 and include mean days of survival (MDS), number of toxic deaths, number of survivors, number of complete or partial responses, and number with stable disease. The mean days of survival is the number of days after which a neoplasm reached a size of 1.5 g and the animal was euthanized. A complete response is obtained if the tumor is not palpable at the end of the study. A partial response is obtained if the tumor shrinks to a size smaller than its size on Day 1 of the study. […]

[2] = system: DU 145 Human Prostate Carcinoma Xenografts; conditions: DU145
Method: (§4) Other antitumor compounds were similarly formulated. […] The dosing volume was 0.3 ml per 20 g mouse.
Male NCr-nude mice (implanted subcutaneously with 1 mm^3 DU145 prostate carcinoma fragments in the flank) were sorted into treatment groups of five mice each. […] Dosing was initiated on Day 1. The antitumor compounds were given i.v. at an estimated maximum tolerated dose (MTD) appropriate for each agent on a qd x 1 schedule (single administration of compound). […] The vehicle was administered i.v. to control mice in Group 1 on the qd x 1 schedule. The study was terminated on Day 91. Treatment groups are detailed in Table 5.
(§5) The mean days of survival is the number of days after which a neoplasm reached a size of 1.5 g and the animal was euthanized. A complete response is obtained if the tumor is not palpable at the end of the study. A partial response is obtained if the tumor shrinks to a size smaller than its size on Day 1 of the study. […]

[3] = system: A375 Human Melanoma Xenografts; conditions: A375
Method: as §4
Female NCr-nude mice (implanted subcutaneously with 1 mm^3 A375 melanoma in the flank) were sorted into treatment groups of six mice each, except for the Taxotere group having seven mice each. […] Dosing was initiated on Day 1. The antitumor compounds were given i.v. at an estimated maximum tolerated dose (MTD) appropriate for each agent on a qd x 1 schedule (single administration of compound). […] Taxotere was given i.v. on a qd x 1 schedule at a dose of 70 mg/kg. The vehicle was administered i.v. to control mice in Group 1 on the qd x 1 schedule. Treatment groups are detailed in Table 9. The study was terminated on Day 60.
as §3, with “Table 10” for “table 14”, “tumor” for “neoplasm”, “2.0” for “1.5”

[4] = system: MX-1 Human Breast Carcinoma Xenograft; conditions: i.v. qd x 1 (Taxol 36 mg/kg split dose, 1393 72.6 mg/kg)
Method: Antitumor compounds were formulated for an i.v. dosing regime (single i.v. bolus on qd x 1 schedule) prepared in the following vehicle: 5% ethanol, 5% Cremophor and 90% isotonic saline. […] Other compounds were similarly formulated. […] The dosing volume was 0.3 ml per 20 g mouse.
All vehicle control animals in the split dosing regimes were dosed twice intravenously with half the total volume being given separated by one hour. The study was terminated on Day 60.
as §5, with “2.0” for “1.5”

[5] = system: Panc-1 Human Pancreatic Carcinoma Xenografts; conditions: 6 mice/group
Method: as §1
as §2, with “Panc-1 pancreatic” for “VM46 colon”, “12.” for “13.”, “The” for “The VM46”, “was terminated” for “ended”, “63.” for “64.”
The mean days of survival is the number of days after which a neoplasm reached a size of 1.5 g and the animal was euthanized. A complete response is obtained if the tumor is not palpable at the end of the study. A partial response is obtained if the tumor shrinks to a size smaller than its size on Day 1 of the study.

[6] = i.v. qd x 1 (mg/kg: Taxol 24, 1351 107.6, 1393 72.6, 1401 107.6, 1418 107.6, 1424 195.1), 5 mice/group, Day 91
[7] = i.v. qd x 1 (mg/kg: Taxol 24, 1351 107.6, 1393 72.6, 1401 107.6, 1418 107.6, 1424 195.1, Taxotere 70), Day 60
[8] = i.v. qd x 1 at estimated MTD, study end Day 63
[9] = Panc-1, i.v. qd x 1 (mg/kg: 1393 72.6, 1418 107.6), Day 63

CCC(=O)OC1CC2OCC2(OC(C)=O)C2C(OC(=O)c3ccccc3)C3(O)CC(OC(=O)C(O)C(NC(=O)OC(C)(C)C)c4ccco4)C(C)=C(C(O)C(=O)C12C)C3(C)C (stereo not shown) [Compound 1393, 3'-Desphenyl-3'-(2-furyl)-7-propionyl taxotere]
Survivors [1]: 1 | Survivors [2, 6]: 4 | Survivors [3, 7]: 0 | survival extension compared to Group 1 controls ([3]; i.v. qd x 1 (mg/kg: Taxol 24, 1393 72.6, 1418 107.6, Taxotere 70)): 250% | Survivors ([4]; 6 mice/group, Day 60): 6 | Survivors [5, 8]: 6

CCC(=O)O[C@H]1C[C@H]2OC[C@@]2(OC(C)=O)[C@H]2[C@H](OC(=O)c3ccccc3)[C@]3(O)C[C@H](OC(=O)[C@H](O)[C@@H](NC(=O)OC(C)(C)C)c4ccco4)C(C)=C([C@@H](O)C(=O)[C@]12C)C3(C)C [Compound 1393, 3'-Desphenyl-3'-(2-furyl)-7-propionyl taxotere]
Complete Response [1]: 1 | Mean Score [1]: 3.2 ± 1.4 | Partial Response [1]: 0 | Stable Disease [1]: 0 | Toxic Deaths [1]: 0 | MDS (n) ([1]; days until tumor reached 1.5 g): 46.2 ± 6.1 (5) days | complete response rate ([2]; 1393 72.6 mg/kg i.v. qd x 1): 60% | Complete Response [2, 6]: 3 | Partial Response [2, 6]: 1 | Stable Disease [2, 6]: 0 | Mean Score ([2]; i.v. qd x 1 (mg/kg: Taxol 24, 1351 107.6, 1393 72.6, 1401 107.6, 1418 107.6, 1424 195.1), tumor score 1 to 10, group mean): 8 ± 1.5 | Complete Response [3, 7]: 0 | Partial Response [3, 7]: 0 | Stable Disease [3, 7]: 0 | Toxic Deaths [3, 7]: 0 | Mean Score ([3]; i.v. qd x 1 (mg/kg: Taxol 24, 1351 107.6, 1393 72.6, 1401 107.6, 1418 107.6, 1424 195.1, Taxotere 70), tumor score 1 to 10, group mean): 3±0 | Partial Response ([4]; 6 mice/group, Day 60): 1 | Stable Disease ([4]; 6 mice/group, Day 60): 0 | Mean Score ([4]; tumor score 1 to 10, group mean): 9.8 ± 0.2 | Complete Response [5, 9]: 1 | Partial Responses [5, 9]: 4 | Toxic Deaths [5, 8]: 0
